Data as given in patent US6514969B2, “β-amyloid inhibitors, processes for preparing them, and their use in pharmaceutical compositions” (Boehringer Ingelheim Pharma KG, priority 2000, dated 2003).

System: Aβ formation in human astroglioma cells (U 373) transfected with human APP751 (U373-K10)
Assay: Inhibition of Aβ formation in medium of APP751-overexpressing U373-K10 cells (ELISA)
Type: cell-based
Settings: U373 MG
Source text: The compounds according to the invention are characterized in that they inhibit the process of the formation of Aβ or its release from cells. This property was investigated according to the test described below.
The inhibition of Aβ formation was investigated in the medium of a cell line overexpressing APP751. For this purpose, human astroglioma cells (U 373, ATCC) were stably transfected with the gene for human APP751 under the control of a CMV promoter (vector pRC-CMV). A clone with a high APP751 expression (U373-K10) was selected. In order to carry out the assay the cells are plated out in 96-well plates (Falcon) in Dulbecco's-Minimal-Essential medium (DMEM, Bio-Whittaker) with 10% FCS and cultivated to confluence at 37° C./5% CO2.
The substances to be tested are first dissolved in 100% DMSO and then diluted to the test concentration in culture medium, so that the DMSO concentration of the test solution is always below 0.5%.
150 μl of the test solution are added per well to a confluent culture plate which has previously been washed once with DMEM, and pre-incubated for about 16 hours. This solution is replaced by 150 μl of fresh test solution after 1 wash and incubated again for 4 hours.
100 μl of this four-hour supernatant are transferred to an ELISA plate (Nunc) coated with the antibody 6E10 (specific for Aβ1-16, Senetek), and incubated overnight at 4° C. The Aβ is determined the next day by means of the alkaline phosphatase-conjugated antibody 6B10, which is specific for Aβ32-40.

An IC50 of 12 µM was found for `O=c1[nH]c2ccccc2n1C1CCN(CCCc2c(-c3ccccc3)nc3ccccn23)CC1` [Example 12, 1-{1-[3-(2-phenylimidazo[1,2-a]pyridin-3-yl)propyl]piperidin-4-yl}-1,3-dihydrobenzimidazol-2-one] in this work.

An IC50 of 15 µM was found for `O=c1[nH]c2ccccc2n1C1CCN(CCCc2c(-c3ccc(Cl)cc3)nc3ccccn23)CC1` [Example 13, 1-{1-[3-(2-p-chlorophenylimidazo[1,2-a]pyridin-3-yl)propyl]piperidin-4-yl}-1,3-dihydrobenzimidazol-2-one] in this work.

An IC50 of 30 µM was found for `Clc1ccc(-c2nc3ccccn3c2CCCN2CCN(Cc3ccccc3)CC2)cc1` [Example 14, 3-[3-(4-benzylpiperazin-1-yl)propyl]-2-(4-chlorophenyl)imidazo[1,2-a]pyridine] in this work.

An IC50 of 35 µM was found for `Clc1ccc(CN2CCN(CCCc3c(-c4ccc(Cl)cc4)nc4ccccn34)CC2)cc1` [Example 20, 3-{3-[4-(4-chlorobenzyl)piperazin-1-yl]propyl}-2-(4-chlorophenyl)imidazo[1,2-a]pyridine] in this work.

An IC50 of 20 µM was found for `O=C(/C=C/c1c(-c2ccccc2)nc2ccccn12)N1CCC(n2c(=O)[nH]c3ccccc32)CC1` [Example 21] in this work.
